Patent US8791107B2, “N-substituted oxazinopteridines and oxazinopteridinones” (Takeda Pharmaceutical Company Limited, priority 2011, dated 2014)

target: T1, PI3Kδ (Homo sapiens, UniProt O00329); experiment: PI3Kδ inhibition, modified PIK3CD Adapta TR-FRET assay; type: biochemical; conditions: recombinant GST-tagged full length PIK3CD co-expressed with PIK3R1 (p85α); 2 μM ATP, 50 μM PIP2; read-out: PI3Kδ Inhibition (pIC50) (converted)
T1 construct: The protein is full length and co-expressed with untagged PIK3R1; GST; purchased Invitrogen PV5274
How it was run: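 Inhibition was derived from % conversion against positive and negative controls, with ADP read by Adapta Eu-antibody/tracer TR-FRET. Room-temperature reactions used GST-PIK3CD/p85α in HEPES pH 7.5 buffer (MgCl2, EGTA, NaCl, CHAPS, fresh DTT), 1% DMSO final and 12 concentrations. They were initiated by adding 2 μM ATP/50 μM PIP2 solution.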

T1 sequence (O00329 whole entry): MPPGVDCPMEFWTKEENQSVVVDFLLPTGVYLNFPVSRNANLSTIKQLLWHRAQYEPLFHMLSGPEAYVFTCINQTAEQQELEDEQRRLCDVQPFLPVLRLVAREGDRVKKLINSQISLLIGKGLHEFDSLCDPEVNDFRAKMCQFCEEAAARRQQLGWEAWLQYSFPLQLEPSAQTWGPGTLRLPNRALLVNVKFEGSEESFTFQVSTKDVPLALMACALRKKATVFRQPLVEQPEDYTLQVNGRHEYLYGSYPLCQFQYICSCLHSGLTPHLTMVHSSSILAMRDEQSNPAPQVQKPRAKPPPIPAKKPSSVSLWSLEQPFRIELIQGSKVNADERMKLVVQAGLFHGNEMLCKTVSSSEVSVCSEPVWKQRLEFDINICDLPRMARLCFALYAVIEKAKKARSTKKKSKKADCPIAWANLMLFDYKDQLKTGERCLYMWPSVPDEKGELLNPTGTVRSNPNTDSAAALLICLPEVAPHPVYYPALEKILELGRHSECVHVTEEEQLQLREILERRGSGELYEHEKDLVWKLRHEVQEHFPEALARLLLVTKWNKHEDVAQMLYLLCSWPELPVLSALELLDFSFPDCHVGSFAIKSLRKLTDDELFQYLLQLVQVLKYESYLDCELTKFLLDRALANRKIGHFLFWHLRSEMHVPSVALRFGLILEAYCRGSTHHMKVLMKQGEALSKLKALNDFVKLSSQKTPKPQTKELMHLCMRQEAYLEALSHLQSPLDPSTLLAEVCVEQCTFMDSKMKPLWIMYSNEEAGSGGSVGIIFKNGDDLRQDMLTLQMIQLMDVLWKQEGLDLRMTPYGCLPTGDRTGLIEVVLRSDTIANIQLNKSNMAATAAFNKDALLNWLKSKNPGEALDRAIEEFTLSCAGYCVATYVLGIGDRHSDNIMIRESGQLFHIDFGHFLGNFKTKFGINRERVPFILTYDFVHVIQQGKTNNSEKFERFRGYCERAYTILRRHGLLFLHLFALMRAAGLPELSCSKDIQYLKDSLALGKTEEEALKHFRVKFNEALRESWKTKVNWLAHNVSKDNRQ
T1 sequence (P27986 whole entry partner): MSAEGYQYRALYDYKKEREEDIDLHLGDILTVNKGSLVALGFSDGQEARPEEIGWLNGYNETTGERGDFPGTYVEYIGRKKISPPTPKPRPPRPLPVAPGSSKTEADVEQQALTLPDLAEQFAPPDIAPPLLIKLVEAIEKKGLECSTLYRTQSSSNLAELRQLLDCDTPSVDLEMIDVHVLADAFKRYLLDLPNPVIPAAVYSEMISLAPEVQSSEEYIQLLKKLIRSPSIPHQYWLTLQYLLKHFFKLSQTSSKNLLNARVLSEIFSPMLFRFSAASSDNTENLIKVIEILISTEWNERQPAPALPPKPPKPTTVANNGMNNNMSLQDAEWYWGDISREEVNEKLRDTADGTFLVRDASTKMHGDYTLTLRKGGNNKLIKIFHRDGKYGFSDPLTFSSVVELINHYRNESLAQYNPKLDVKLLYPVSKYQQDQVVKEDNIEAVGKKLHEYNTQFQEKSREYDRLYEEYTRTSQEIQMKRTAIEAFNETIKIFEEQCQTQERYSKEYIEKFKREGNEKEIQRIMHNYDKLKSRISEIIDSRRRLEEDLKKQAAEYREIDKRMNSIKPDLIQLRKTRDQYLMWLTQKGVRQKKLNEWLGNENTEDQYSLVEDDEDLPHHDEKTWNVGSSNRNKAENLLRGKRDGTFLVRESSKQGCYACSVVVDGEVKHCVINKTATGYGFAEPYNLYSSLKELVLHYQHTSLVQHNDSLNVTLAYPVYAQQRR

| Structure (SMILES) | IC50 [nM] |
| --- | --- |
| COc1ccc(CC(=O)N2CC3COCCN3c3nc(-c4cccc5[nH]ccc45)ncc32)cc1 (stereo not shown) [Example 20, 1-(2-(1H-indol-4-yl)-6a,7,9,10-tetrahydro-[1,4]oxazino[3,4-h]pteridin-5(6H)-yl)-2-(4-methoxyphenyl)ethanone] | 501 |
| O=C(CN1C[C@@H]2COCCN2c2nc(-c3cccc(CO)c3)ncc21)NCC1CCOCC1 [Example 82, (R)-2-(2-(3-(hydroxymethyl)phenyl)-6a,7,9,10-tetrahydro-[1,4]oxazino[3,4-h]pteridin-5(6H)-yl)-N-((tetrahydro-2H-pyran-4-yl)methyl)acetamide] | 12.6 |
| CNC(=O)Nc1ccc(-c2ncc3c(n2)N2CCOCC2C(=O)N3CC2CC2(F)F)cc1 (stereo not shown) [Example 93, 1-(4-(5-((2,2-difluorocyclopropyl)methyl)-6-oxo-5,6,6a,7,9,10-hexahydro-[1,4]oxazino[3,4-h]pteridin-2-yl)phenyl)-3-methylurea] | 5.01 |
| CS(=O)(=O)c1ccc(CN2CC3COCCN3c3nc(-c4cccc5[nH]c(C(F)(F)F)cc45)ncc32)cc1 (stereo not shown) [Example 21, 5-(4-(methylsulfonyl)benzyl)-2-(2-(trifluoromethyl)-1H-indol-4-yl)-5,6,6a,7,9,10-hexahydro-[1,4]oxazino[3,4-h]pteridine] | 1260 |

Results, then the compound that gave them:

| IC50 [nM] | Structure (SMILES) |
| --- | --- |
| 31.6 | CS(=O)(=O)c1ccc(CN2C(=O)C3COCCN3c3nc(-c4cnc5[nH]ccc5c4)ncc32)cc1 (stereo not shown) [Example 108, 5-(4-(methylsulfonyl)benzyl)-2-(1H-pyrrolo[2,3-b]pyridin-5-yl)-6a,7,9,10-tetrahydro-[1,4]oxazino[3,4-h]pteridin-6(5H)-one] |
| 501 | COc1ccc2c(-c3ncc4c(n3)N3CCOCC3C(=O)N4Cc3ccc(S(C)(=O)=O)cc3)c[nH]c2c1 (stereo not shown) [Example 136, 2-(6-methoxy-1H-indol-3-yl)-5-(4-(methylsulfonyl)benzyl)-6a,7,9,10-tetrahydro-[1,4]oxazino[3,4-h]pteridin-6(5H)-one] |
| 631 | CS(=O)(=O)c1ccc(CN2C[C@H]3COCCN3c3nc(-c4cccc5[nH]ccc45)ncc32)cc1 [Example 28, (S)-2-(1H-indol-4-yl)-5-(4-(methylsulfonyl)benzyl)-5,6,6a,7,9,10-hexahydro-[1,4]oxazino[3,4-h]pteridine] |
